# From publication PMC9412362, “Design, Synthesis, and Characterization of Novel Coordination Compounds of Benzimidazole Derivatives with Cadmium” (Pharmaceutics, 2022)
# Where two headings read alike, the source gives them in different places.
# Tests used:
# S. aureus ATCC 25923 = assay: MIC, micro-dilution broth method; format: cell-based, Staphylococcus aureus; conditions: Gram-positive bacteria, micro-dilution broth
# Description: (§1) Samples of complexes (about 20 mg) were digested in a concentrated mixture of 36% HCl (1 mL) and 65% HNO3 (6 mL). The contents of Cd (II) in the solid complexes were determined with an F-AAS spectrometer (Analytik Jena, contraAA 300, Jena, Germany) with a continuous source of light and using an air/acetylene flame (Analytik Jena, contraAA 300). Absorbances were measured at the analytical spectral lines at 228.8 nm for Cd (II). The limit of quantification was 0.004 mg/L for Cd (II). The solid samples were decomposed using an Anton Paar Multiwave 3000 (Graz, Austria) closed-system instrument. Mineralization was carried out for 45 min at 240 °C under a pressure of 60 bar. The contents of carbon, hydrogen, and nitrogen were determined with an instrument from Vario Micro Company Elementar Analysensysteme GmbH (Langenselbold, Germany). FTIR spectra were recorded with an IR Tracer-100 Schimadzu Spectrometer (4000–600 cm^−1 with an accuracy of recording of 1 cm^−1, Kyoto, Japan) using KBr pellets. The thermal analyses were carried out with a Netzsch STA 449 F1 Jupiter thermoanalyzer (Netzsch-Geratebau GmbH, Selb, Germany) coupled with a Netzsch Aeolos Quadro QMS 403 mass spectrometer (Netzsch-Geratebau GmbH, Selb, Germany). The samples were heated up to 1000 °C in corundum crucibles with a heating rate of 10 °C/min in an atmosphere of synthetic air (20% O2, 80% N2). The cytotoxic effects of the compounds were evaluated using glioblastoma (T98G), neuroblastoma (SK-N-AS), and lung adenocarcinoma (A549) cell lines and normal human skin fibroblasts (CCD-1059Sk). T98G and SK-N-AS cells were cultured in high-glucose DMEM and A549 cells were cultured in DMEM/F12, while CCD-1059Sk cells were cultured in MEM. All media were supplemented with 10% (FBS), 100 U/mL of penicillin, and […] of streptomycin (PenStrep). Cells were incubated at 37 °C in a humidified atmosphere of 5% CO2. Stock solutions were prepared by dissolving the compounds in sterile dimethyl sulfoxide (DMSO) to obtain a concentration of 50 mg/mL. The cells were seeded into sterile 96-well plates (Nunc) at a density of 1 × 10^5 cells/mL. After 24 h of incubation, the medium was removed from each well, and then the cells were incubated for the next 24 h with different concentrations of the tested compounds (1–100 µg/mL) in their respective media containing 2% FBS. The cytotoxicity of the compounds was evaluated using an MTT assay, which was based on the conversion of 3-(4,5-dimethylthiazol-2-yl)-2,5-diphenyltetrazolium bromide (MTT) into dark-blue formazan crystals. Briefly, after 24 h of incubation of the cells with varying concentrations of the tested compounds, all culture media were removed from the plates. The cells were washed with PBS, and then 100 µL of medium containing 10% MTT solution (5 mg/mL) was added to each well. After 3 h of incubation, 100 µL (per well) of 10% SDS buffer solution was added to solubilize the formazan crystals. After overnight incubation, the absorbance was measured at 570 nm using a microplate reader (Epoch, BioTek Instruments). Experiments were repeated twice, and the measurements in each experiment were run in triplicate. The viability of the investigated cells was expressed as the percentage of the viability of the untreated cells, and the results were transformed into IC50 values (expressed as mean ± SD). The complexes were screened for antibacterial and antifungal activity by using the micro-dilution broth method with Mueller–Hinton broth for the growth of bacteria or Mueller–Hinton broth with 2% glucose for the growth of fungi. […]
# [1] = test system: S. epidermidis ATCC 12228; assay: MIC, micro-dilution broth method; format: cell-based, Staphylococcus epidermidis; conditions: Gram-positive bacteria, micro-dilution broth
# Description: as §1
# M. luteus ATCC 10240 = assay: MIC, micro-dilution broth method; format: cell-based, Micrococcus luteus; conditions: Gram-positive bacteria, micro-dilution broth
# Description: as §1
# E. faecalis ATCC 29212 = assay: MIC, micro-dilution broth method; format: cell-based, Enterococcus faecalis; conditions: Gram-positive bacteria, micro-dilution broth
# Description: as §1
# B. subtilis ATCC 6633 = assay: MIC, micro-dilution broth method; format: cell-based, Bacillus subtilis; conditions: Gram-positive bacteria, micro-dilution broth
# Description: as §1
# B. cereus ATCC 10876 = assay: MIC, micro-dilution broth method; format: cell-based, Bacillus cereus; conditions: Gram-positive bacteria, micro-dilution broth
# Description: as §1
# [2] = test system: S. typhimurium ATCC 14028; assay: MIC, micro-dilution broth method; format: cell-based, Salmonella Typhimurium; conditions: Gram-negative bacteria
# Description: as §1
# E. coli ATCC 25922 = assay: MIC, micro-dilution broth method; format: cell-based, Escherichia coli; conditions: for MIC, E. coli ATCC 25922: Gram-negative bacteria
# Description: as §1
# P. mirabilis ATCC 12453 = assay: MIC, micro-dilution broth method; format: cell-based, Proteus mirabilis; conditions: for MIC, P. mirabilis ATCC 12453: Gram-negative bacteria
# Description: as §1
# K. pneumoniae ATCC 13883 = assay: MIC, micro-dilution broth method; format: cell-based, Klebsiella pneumoniae; conditions: for MIC, K. pneumoniae ATCC 13883: Gram-negative bacteria
# Description: as §1
# P. aeruginosa ATCC 9027 = assay: MIC, micro-dilution broth method; format: cell-based, Pseudomonas aeruginosa; conditions: for MIC, P. aeruginosa ATCC 9027: Gram-negative bacteria
# Description: as §1
# C. glabrata ATCC 2091 = assay: MIC, micro-dilution broth method; format: cell-based; conditions: for MIC, C. glabrata ATCC 2091: Yeasts, micro-dilution broth with 2% glucose
# Description: as §1
# C. albicans ATCC 102231 = assay: MIC, micro-dilution broth method; format: cell-based, Candida albicans; conditions: for MIC, C. albicans ATCC 102231: Yeasts, micro-dilution broth with 2% glucose
# Description: as §1
# [3] = test system: C. parapsilosis ATCC 22019; assay: MIC, micro-dilution broth method; format: cell-based, Candida parapsilosis; conditions: Yeasts, micro-dilution broth with 2% glucose
# Description: as §1
# [4] = Solubility in culture medium (MTT assay); format: physicochemical; conditions: culture medium of the MTT assay
# Description: Samples of complexes (about 20 mg) were digested in a concentrated mixture of 36% HCl (1 mL) and 65% HNO3 (6 mL). The contents of Cd (II) in the solid complexes were determined with an F-AAS spectrometer (Analytik Jena, contraAA 300, Jena, Germany) with a continuous source of light and using an air/acetylene flame (Analytik Jena, contraAA 300). Absorbances were measured at the analytical spectral lines at 228.8 nm for Cd (II). The limit of quantification was 0.004 mg/L for Cd (II). The solid samples were decomposed using an Anton Paar Multiwave 3000 (Graz, Austria) closed-system instrument. Mineralization was carried out for 45 min at 240 °C under a pressure of 60 bar. The contents of carbon, hydrogen, and nitrogen were determined with an instrument from Vario Micro Company Elementar Analysensysteme GmbH (Langenselbold, Germany). FTIR spectra were recorded with an IR Tracer-100 Schimadzu Spectrometer (4000–600 cm^−1 with an accuracy of recording of 1 cm^−1, Kyoto, Japan) using KBr pellets. […] The cytotoxic effects of the compounds were evaluated using glioblastoma (T98G), neuroblastoma (SK-N-AS), and lung adenocarcinoma (A549) cell lines and normal human skin fibroblasts (CCD-1059Sk). […] The cytotoxicity of the compounds was evaluated using an MTT assay, which was based on the conversion of 3-(4,5-dimethylthiazol-2-yl)-2,5-diphenyltetrazolium bromide (MTT) into dark-blue formazan crystals. […]
# T98G cells = assay: MTT cytotoxicity assay, glioblastoma T98G; format: cell-based, human; conditions: MTT assay after 24 h of incubation, read-out: IC50 ± SD, T98G
# Description: as §1
# SK-N-AS cells = assay: MTT cytotoxicity assay, neuroblastoma SK-N-AS; format: cell-based, human; conditions: MTT assay after 24 h of incubation, read-out: IC50 ± SD, SK-N-AS
# Description: as §1
# A549 cells = assay: MTT cytotoxicity assay, lung adenocarcinoma A549; format: cell-based, human; conditions: lung carcinoma A549, MTT assay after 24 h of incubation, read-out: IC50 ± SD, A549
# Description: as §1
# CCD-1059Sk cells = assay: MTT cytotoxicity assay, normal human skin fibroblasts CCD-1059Sk; format: cell-based; conditions: normal human fibroblasts CCD-1059Sk, MTT assay after 24 h of incubation; read-out: IC50 ± SD, CCD-1059-Sk
# Description: as §1
Compound,"MIC, S. aureus ATCC 25923 (S. aureus ATCC 25923)","MIC, S. epidermidis ATCC 12228 [1]","MIC, M. luteus ATCC 10240 (M. luteus ATCC 10240)","MIC, E. faecalis ATCC 29212 (E. faecalis ATCC 29212)","MIC, B. subtilis ATCC 6633 (B. subtilis ATCC 6633)","MIC, B. cereus ATCC 10876 (B. cereus ATCC 10876)","MIC, S. typhimurium ATCC 14028 [2]","MIC, E. coli ATCC 25922 (E. coli ATCC 25922)","MIC, P. mirabilis ATCC 12453 (P. mirabilis ATCC 12453)","MIC, K. pneumoniae ATCC 13883 (K. pneumoniae ATCC 13883)","MIC, P. aeruginosa ATCC 9027 (P. aeruginosa ATCC 9027)","MIC, C. glabrata ATCC 2091 (C. glabrata ATCC 2091)","MIC, C. albicans ATCC 102231 (C. albicans ATCC 102231)","MIC, C. parapsilosis ATCC 22019 [3]",IC50 (CCD-1059Sk cells),also measured
"O.[Cl][Cd][Cl].c1cc(-c2nc3ccncc3[nH]2)ccn1 [C1, Cd(L1)Cl2∙H2O]",500 µg/mL,250 µg/mL,7.8 µg/mL,125 µg/mL,7.8 µg/mL,500 µg/mL,1000 µg/mL,1000 µg/mL,1000 µg/mL,1000 µg/mL,>1000 µg/mL,62.5 µg/mL,500 µg/mL,15.6 µg/mL,–,solubility in culture medium [4]: Not determined due to low solubility in culture medium
c1cncc(-c2nc3cccnc3[nH]2)c1 [L3],–,–,–,–,–,–,–,–,–,–,–,–,–,–,> 509 µM,"IC50 (T98G cells; Homo sapiens): > 509 µM; IC50 (SK-N-AS cells; Homo sapiens, SK-N-AS, 24 h): > 509 µM; IC50 (A549 cells; Homo sapiens): > 509 µM; MIC (S. aureus ATCC 25923; Staphylococcus aureus, ATCC25923, read-out: MIC, S. aureus ATCC 25923): > 1000 µg/mL; MIC ([1]; Staphylococcus epidermidis, ATCC12228, read-out: MIC, S. epidermidis ATCC 12228): > 1000 µg/mL; MIC (M. luteus ATCC 10240; Micrococcus luteus, ATCC10240, read-out: MIC, M. luteus ATCC 10240): 500 µg/mL; MIC (E. faecalis ATCC 29212; Enterococcus faecalis, ATCC29212, read-out: MIC, E. faecalis ATCC 29212): > 1000 µg/mL; MIC (B. subtilis ATCC 6633; Bacillus subtilis, ATCC6633, read-out: MIC, B. subtilis ATCC 6633): 1000 µg/mL; MIC (B. cereus ATCC 10876; Bacillus cereus, ATCC10876, read-out: MIC, B. cereus ATCC 10876): 1000 µg/mL; MIC ([2]; Salmonella enterica): > 1000 µg/mL; MIC (E. coli ATCC 25922; Escherichia coli, ATCC25922, Gram-negative bacteria): > 1000 µg/mL; MIC (P. mirabilis ATCC 12453; Proteus mirabilis, ATCC12453, Gram-negative bacteria): > 1000 µg/mL; MIC (K. pneumoniae ATCC 13883; Klebsiella pneumoniae, ATCC13883, Gram-negative bacteria): > 1000 µg/mL; MIC (P. aeruginosa ATCC 9027; Pseudomonas aeruginosa, ATCC9027, Gram-negative bacteria): > 1000 µg/mL; MIC (C. glabrata ATCC 2091; Nakaseomyces glabratus, ATCC2091, read-out: MIC, C. glabrata ATCC 2091): > 1000 µg/mL; MIC (C. albicans ATCC 102231; Candida albicans, ATCC102231, read-out: MIC, C. albicans ATCC 102231): > 1000 µg/mL; MIC ([3]; Lodderomyces parapsilosis, ATCC22019): 1000 µg/mL"
"Brc1cnc2[nH]c(-c3cccnc3)nc2c1.O.O.[Cl][Cd][Cl] [C4, Cd(L4)Cl2∙2H2O]",1000 µg/mL,250 µg/mL,7.8 µg/mL,250 µg/mL,7.8 µg/mL,250 µg/mL,1000 µg/mL,500 µg/mL,1000 µg/mL,1000 µg/mL,>1000 µg/mL,31.3 µg/mL,125 µg/mL,7.8 µg/mL,27.7 ± 0.9 µM,IC50 (T98G cells): 42.5 ± 0.96 µM; IC50 (SK-N-AS cells): 25.3 ± 1 µM; IC50 (A549 cells): 37.3 ± 2.1 µM
